Assays:
Format in all cases: in vivo, Wister rats
ISO induced MI animals [1] = assay: Infarct size determination (TTC staining) in ISO-induced MI; details: pretreatment 100, 200 mg/kg, 21 days, vs ISO induced MI group
Method: Animals were distributed into five groups randomly (n=6). The animals in normal and eucalyptol control groups were administered either saline or eucalyptol for 3 weeks and then saline (s.c) on the last two days of the experiment (20th and 21st days). The animals in the myocardial infarction (MI) control group were given saline orally for 3 weeks, then challenged with Isoproterenol (ISO) (85 mg/kg, s.c.) as stated before on the 20th and 21st days to induce MI. The animals in the eucalyptol pretreatment groups were pretreated with eucalyptol (either 100 or 200 mg/kg) orally for 3 weeks then confronted with ISO (85 mg/kg s.c.) on the last two days of the experiment. All experimental animals were killed 24 hrs after the second dose of ISO. Subsequent to ECG determination, blood samples were collected and the hearts were directly removed and balanced using an animal weighing scale prior to storage. The obtained blood samples were centrifuged and the serum from different experimental groups was frozen in −80° C. for further biochemical examinations. Frozen hearts were cut into 4-5 transverse incubated in 10% TTC (dissolved phosphate buffer, pH 7.4) for 25 min. at room temperature, fixed using 10% formaldehyde, and finally quantified using Image J® program (National Institutes of Health, University of Wisconsin).

ISO induced MI animals [2] = assay: Heart rate and ECG recording in ISO-induced myocardial infarction; details: for Heart Rate / P Wave / P-R interval / QRS complex / QT interval / R-R interval / ST segment: mean ± SD, n=6
Method: Animals were distributed into five groups randomly (n=6). The animals in normal and eucalyptol control groups were administered either saline or eucalyptol for 3 weeks and then saline (s.c) on the last two days of the experiment (20th and 21st days). The animals in the myocardial infarction (MI) control group were given saline orally for 3 weeks, then challenged with Isoproterenol (ISO) (85 mg/kg, s.c.) as stated before on the 20th and 21st days to induce MI. The animals in the eucalyptol pretreatment groups were pretreated with eucalyptol (either 100 or 200 mg/kg) orally for 3 weeks then confronted with ISO (85 mg/kg s.c.) on the last two days of the experiment. All experimental animals were killed 24 hrs after the second dose of ISO. At the end of the experiments, urethane-anesthetized rats (1.5 g/kg) were prone positioned to obtain uninterrupted ECG recordings using noninvasive computerized ECG apparatus from. Kent Scientific (USA). Heart rate and ECG components including ST segment, wave. QT, P-R and R-R intervals, and QRS complex were electronically measured.

ISO induced MI animals [3] = assay: Cardiac enzymes by ELISA in ISO-induced MI
Method: (§1) Animals were distributed into five groups randomly (n=6). The animals in normal and eucalyptol control groups were administered either saline or eucalyptol for 3 weeks and then saline (s.c) on the last two days of the experiment (20th and 21st days). The animals in the myocardial infarction (MI) control group were given saline orally for 3 weeks, then challenged with Isoproterenol (ISO) (85 mg/kg, s.c.) as stated before on the 20th and 21st days to induce MI. The animals in the eucalyptol pretreatment groups were pretreated with eucalyptol (either 100 or 200 mg/kg) orally for 3 weeks then confronted with ISO (85 mg/kg s.c.) on the last two days of the experiment. All experimental animals were killed 24 hrs after the second dose of ISO. The extracted heart tissues were homogenated in 10% phosphate buffer to be used for the measurement of numerous biochemical parameters, including cardiac enzymes, apoptotic markers, inflammatory mediators' markers, and total protein. ELISA kits were consumed to measure cardiac enzymes: CPK, CK-MB, cTnT, and cTnI; apoptotic markers: Caspase 3 and Caspase 9 and inflammatory mediators: TNF-α, IL-1β, and NFκB. All ELISA Kits were used according to the manufacturer's protocols and using a microplate reader SpectraMax i.3× (Molecular Devices, USA).

[4] = test system: TLR pathway (TLR 2, TLR 4, MYD 88, and TRIF); assay: TLR pathway protein expression by Western blot in cardiac tissue, ISO-induced MI
Method: Animals were distributed into five groups randomly (n=6). The animals in normal and eucalyptol control groups were administered either saline or eucalyptol for 3 weeks and then saline (s.c) on the last two days of the experiment (20th and 21st days). The animals in the myocardial infarction (MI) control group were given saline orally for 3 weeks, then challenged with Isoproterenol (ISO) (85 mg/kg, s.c.) as stated before on the 20th and 21st days to induce MI. The animals in the eucalyptol pretreatment groups were pretreated with eucalyptol (either 100 or 200 mg/kg) orally for 3 weeks then confronted with ISO (85 mg/kg s.c.) on the last two days of the experiment. All experimental animals were killed 24 hrs after the second dose of ISO. For detection of the Toll-Like Receptors pathway protein expressions, Western blot was performed according to known methods. Values were mentioned as mean SEM (n=6). Densitometry inquiry was accomplished via Image software for Western analysis. Statistical analysis appraisal was done via GraphPad Prism 5.

[5] = test system: HSP-60 and inflammatory markers (TNF-α, IL-6 and NFκB); assay: HSP-60 and inflammatory mediators in ISO-induced MI
Method: as §1

[6] = test system: Bax, Bcl2, Caspase 3 and 9; assay: Apoptotic status within the myocardium in ISO-induced MI (Bax, Bcl-2 mRNA; Caspase 3 and 9)
Method: as §1, with “USA). Real-time PCR was preformed according to known techniques. Primer sequences used in this study were as follows: Bcl-2-[…] NO: 1), Bcl-2-[…] ID NO:2), Bax-[…] NO: 3), Bax-[…] ID NO: 4), […] ID NO: 5), […] ID NO: 6), […] ID NO: 7), […] ID NO: 8), MyD88 -[…] ID NO: 9), […] ID NO: 11), […] ID NO: 12), β-[…] NO: 13), β-[…] ID NO: 14).” for “USA).”

[7] = test system: TLR pathway (TLR 2, TLR 4, MYD 88, and TRIF); assay: TLR pathway mRNA expression by real-time PCR in ISO-induced MI; details: pretreatment 100, 200 mg/kg, 21 days, vs ISO induced MI control group
Method: Animals were distributed into five groups randomly (n=6). The animals in normal and eucalyptol control groups were administered either saline or eucalyptol for 3 weeks and then saline (s.c) on the last two days of the experiment (20th and 21st days). The animals in the myocardial infarction (MI) control group were given saline orally for 3 weeks, then challenged with Isoproterenol (ISO) (85 mg/kg, s.c.) as stated before on the 20th and 21st days to induce MI. The animals in the eucalyptol pretreatment groups were pretreated with eucalyptol (either 100 or 200 mg/kg) orally for 3 weeks then confronted with ISO (85 mg/kg s.c.) on the last two days of the experiment. All experimental animals were killed 24 hrs after the second dose of ISO. Real-time PCR was preformed according to known techniques. Primer sequences used in this study were as follows: Bcl-2-[…] NO: 1), Bcl-2-[…] ID NO:2), Bax-[…] NO: 3), Bax-[…] ID NO: 4), […] ID NO: 5), […] ID NO: 6), […] ID NO: 7), […] ID NO: 8), MyD88 -[…] ID NO: 9), […] ID NO: 11), […] ID NO: 12), β-[…] NO: 13), β-[…] ID NO: 14).

[8] = Eucalyptol 100 mg/kg orally 21 days, then ISO
[9] = Eucalyptol 200 mg/kg orally 21 days, then ISO
[10] = Eucalyptol control group, no ISO
[11] = eucalyptol control group, no ISO
[12] = pretreatment 100, 200 mg/kg, 21 days, vs ISO induced MI group
[13] = pretreatment (100 and 200 mg/kg, 21 days) vs MI animals

CC12CCC(CC1)C(C)(C)O2 [Eucalyptol, 1,8-cineole]
infarcted area magnitude (infarct size) (ISO induced MI animals [1]): significant infarcted restricting action | Heart Rate (ISO induced MI animals [2]; Eucalyptol 100 mg/kg orally 21 days, then ISO 85 mg/kg s.c.): 294 ± 21.06 ≠ beat/min | P Wave (ISO induced MI animals [2]; [8]): 0.015 ± 0.001 ≠ sec. | P-R interval (ISO induced MI animals [2]; [8]): 0.212 ± 0.012 ≠ sec. | QRS complex (ISO induced MI animals [2]; [8]): 0.038 ± 0.001 ≠ sec. | QT interval (ISO induced MI animals [2]; [8]): 0.064 ± 0.003 ≠ sec. | R-R interval (ISO induced MI animals [2]; [8]): 0.180 ± 0.004 ≠ sec. | ST segment (ISO induced MI animals [2]; [8]): 0.061 ± 0.009 ≠ mV | Heart Rate (ISO induced MI animals [2]; Eucalyptol 200 mg/kg orally 21 days, then ISO 85 mg/kg s.c.): 337.16 ± 14.98 ≠ beat/min | P Wave (ISO induced MI animals [2]; [9]): 0.015 ± 0.001 ≠ sec. | P-R interval (ISO induced MI animals [2]; [9]): 0.222 ± 0.05 ≠ sec. | QRS complex (ISO induced MI animals [2]; [9]): 0.035 ± 0.001 ≠ sec. | QT interval (ISO induced MI animals [2]; [9]): 0.061 ± 0.003 ≠ sec. | R-R interval (ISO induced MI animals [2]; [9]): 0.183 ± 0.056 ≠ sec. | ST segment (ISO induced MI animals [2]; [9]): 0.046 ± 0.009 ≠ mV | P Wave (ISO induced MI animals [2]; [10]): 0.019 ± 0.002 s | P-R interval (ISO induced MI animals [2]; [10]): 0.230 ± 0.012 s | QRS complex (ISO induced MI animals [2]; [10]): 0.042 ± 0.001 s | QT interval (ISO induced MI animals [2]; [10]): 0.047 ± 0.002 s | R-R interval (ISO induced MI animals [2]; [10]): 0.222 ± 0.012 s | ST segment (ISO induced MI animals [2]; [10]): 0.025 ± 0.002 mV | Heart Rate (ISO induced MI animals [2]; Eucalyptol control group: eucalyptol for 3 weeks, saline s.c. instead of ISO): 398.16 ± 43.67 beat/min | heart rate and electrocardiographic (ECG) patterns (ISO induced MI animals [2]; [11]): normal | HR as well as ECG alterations (ISO induced MI animals [2]; [12]): reversed | cardiac enzymes (CPK, CK-MB, cTnT, cTnI) (ISO induced MI animals [3]; [11]): normal | Cardiac Tropinine I (cTnI) (ISO induced MI animals [3]; [12]): significantly diminished | Cardiac Tropinine T (cTnT) (ISO induced MI animals [3]; [12]): significantly diminished | Creatine Kinase Myocardial Bound (CK-MB) (ISO induced MI animals [3]; [12]): significantly diminished | Creatine Phosphokinase (CPK) (ISO induced MI animals [3]; [12]): significantly diminished | TLR pathway protein content [4, 11]: no effect | post-myocardial infarction intensification of TLR pathway protein expression (TLR 2, TLR 4, MYD 88, TRIF) ([4]; pretreatment 100 and 200 mg/kg, cardiac tissue, Western blot): lessened | HSP-60, IL-6 and NFκB, 200 mg/kg compared with 100 mg/kg ([5]; dose of 200 mg/kg vs 100 mg/kg): further significant reduction | TNF-α, 200 mg/kg compared with 100 mg/kg ([5]; dose of 200 mg/kg vs 100 mg/kg): non-significant difference | HSP-60 and inflammatory markers (TNF-α, IL-6 and NFκB) [5, 11]: no effect | myocardial infarction elevation in HSP 60 ([5]; pretreatment 100 and 200 mg/kg): diminished | myocardial infarction elevation in inflammatory mediators (TNF-α, IL-6 and NFκB) ([5]; pretreatment 100 and 200 mg/kg): diminished | Bax, Bcl2, Caspase 3 and 9 [6, 11]: no effect | Bax relative mRNA expression [6, 13]: deteriorated | Bcl-2 mRNA expression [6, 13]: intensified | Caspase 3 and 9 activities [6, 13]: deteriorated | MYD 88 relative mRNA expression level [7]: considerably (p<0.05) declined | TLR 2 relative mRNA expression level [7]: considerably (p<0.05) declined | TLR 4 relative mRNA expression level [7]: considerably (p<0.05) declined | TRIF relative mRNA expression level [7]: considerably (p<0.05) declined
